Data as given in PubChem BioAssay (NCI).
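How tested: cells in 96-well plates exposed to compound for 48 hours at five concentrations. GI50: concentration for 50% inhibition of growth. TGI: total growth inhibition.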

Key:
Experiment in all cases: growth of human tumour cells (NCI), 48 h
OVCAR-8 ovarian = tested on: OVCAR-8 ovarian
OVCAR-4 ovarian = tested on: OVCAR-4 ovarian
RPMI-8226 leukemia = tested on: RPMI-8226 leukemia
NCI/ADR-RES ovarian = tested on: NCI/ADR-RES ovarian
MOLT-4 leukemia = tested on: MOLT-4 leukemia
KM12 colon = tested on: KM12 colon
NCI-H226 lung = tested on: NCI-H226 lung
OVCAR-3 ovarian = tested on: OVCAR-3 ovarian
SN12C renal = tested on: SN12C renal
K-562 leukemia = tested on: K-562 leukemia
SNB-75 CNS = tested on: SNB-75 CNS
MDA-MB-435 = tested on: MDA-MB-435
NCI-H23 lung = tested on: NCI-H23 lung
HCT-15 colon = tested on: HCT-15 colon
MCF7 breast = tested on: MCF7 breast
SK-MEL-28 melanoma = tested on: SK-MEL-28 melanoma
TK-10 renal = tested on: TK-10 renal
M14 melanoma = tested on: M14 melanoma
SNB-19 CNS = tested on: SNB-19 CNS
A549 NSCLC = tested on: A549 NSCLC
SK-MEL-2 melanoma = tested on: SK-MEL-2 melanoma
DU-145 prostate = tested on: DU-145 prostate
A498 renal = tested on: A498 renal
SF-539 CNS = tested on: SF-539 CNS
ACHN renal = tested on: ACHN renal
SR leukemia = tested on: SR leukemia
RXF 393 renal = tested on: RXF 393 renal
EKVX NSCLC = tested on: EKVX NSCLC
IGROV1 ovarian = tested on: IGROV1 ovarian
HT29 colon = tested on: HT29 colon
LOX IMVI melanoma = tested on: LOX IMVI melanoma
UACC-257 melanoma = tested on: UACC-257 melanoma
COLO 205 colon = tested on: COLO 205 colon
OVCAR-5 ovarian = tested on: OVCAR-5 ovarian
SK-MEL-5 melanoma = tested on: SK-MEL-5 melanoma
SF-295 CNS = tested on: SF-295 CNS
NCI-H522 lung = tested on: NCI-H522 lung
HCT-116 colon = tested on: HCT-116 colon
PC-3 prostate = tested on: PC-3 prostate
CCRF-CEM leukemia = tested on: CCRF-CEM leukemia
SF-268 CNS = tested on: SF-268 CNS
HL-60(TB) leukemia = tested on: HL-60(TB) leukemia
BT-549 breast = tested on: BT-549 breast
UACC-62 melanoma = tested on: UACC-62 melanoma
CAKI-1 renal = tested on: CAKI-1 renal
NCI-H460 lung = tested on: NCI-H460 lung
U251 CNS = tested on: U251 CNS
SW-620 colon = tested on: SW-620 colon
UO-31 renal = tested on: UO-31 renal
HS 578T breast = tested on: HS 578T breast
786-0 renal = tested on: 786-0 renal
MDA-MB-231 breast = tested on: MDA-MB-231 breast

Question: How did the GI50 (OVCAR-8 ovarian) turn out when COc1c(N2CCN(CN3C(=O)C(=Nc4ccc(S(=O)(=O)Nc5ncccn5)cc4)c4ccccc43)C(C)C2)c(F)cc2c(=O)c(C(=O)O)cn(C3CC3)c12 (centres undefined) was run?
Answer: The GI50 was 21.4 µM.

Question: And the TGI (OVCAR-8 ovarian)?
Answer: The TGI was over 50 µM.

Question: What about the GI50 (OVCAR-4 ovarian) of the same compound?
Answer: The GI50 was over 50 µM.

Question: What about the TGI (OVCAR-4 ovarian) of the same compound?
Answer: The TGI was over 50 µM.

Question: And the GI50 (RPMI-8226 leukemia)?
Answer: Its GI50 is 28.7 µM.

Question: What about the TGI (RPMI-8226 leukemia) of the same compound?
Answer: The TGI was over 50 µM.

Question: And the GI50 (NCI/ADR-RES ovarian)?
Answer: The GI50 was 23.2 µM.

Question: And the TGI (NCI/ADR-RES ovarian)?
Answer: The TGI was over 50 µM.

Question: What about the GI50 (MOLT-4 leukemia) of the same compound?
Answer: The GI50 was 17 µM.

Question: And the TGI (MOLT-4 leukemia)?
Answer: The TGI was over 50 µM.

Question: What about the GI50 (KM12 colon) of the same compound?
Answer: Its GI50 is 40.8 µM.

Question: And the TGI (KM12 colon)?
Answer: The TGI was over 50 µM.

Question: And the GI50 (NCI-H226 lung)?
Answer: Its GI50 is 32.1 µM.

Question: What about the TGI (NCI-H226 lung) of the same compound?
Answer: The TGI was over 50 µM.

Question: What about the GI50 (OVCAR-3 ovarian) of the same compound?
Answer: Its GI50 is over 50 µM.

Question: And the TGI (OVCAR-3 ovarian)?
Answer: The TGI was over 50 µM.

Question: And the GI50 (SN12C renal)?
Answer: Its GI50 is over 50 µM.

Question: And the TGI (SN12C renal)?
Answer: The TGI was over 50 µM.

Question: And the GI50 (K-562 leukemia)?
Answer: Its GI50 is 11.9 µM.

Question: What about the TGI (K-562 leukemia) of the same compound?
Answer: Its TGI is over 50 µM.

Question: What about the GI50 (SNB-75 CNS) of the same compound?
Answer: Its GI50 is 7.71 µM.

Question: And the TGI (SNB-75 CNS)?
Answer: The TGI was over 50 µM.

Question: And the GI50 (MDA-MB-435)?
Answer: The GI50 was over 50 µM.

Question: What about the TGI (MDA-MB-435) of the same compound?
Answer: The TGI was over 50 µM.

Question: And the GI50 (NCI-H23 lung)?
Answer: Its GI50 is 19.8 µM.

Question: And the TGI (NCI-H23 lung)?
Answer: Its TGI is over 50 µM.

Question: And the GI50 (HCT-15 colon)?
Answer: Its GI50 is 20.7 µM.

Question: And the TGI (HCT-15 colon)?
Answer: The TGI was over 50 µM.

Question: And the GI50 (MCF7 breast)?
Answer: The GI50 was 16.5 µM.

Question: What about the TGI (MCF7 breast) of the same compound?
Answer: The TGI was over 50 µM.

Question: And the GI50 (SK-MEL-28 melanoma)?
Answer: The GI50 was over 50 µM.

Question: What about the TGI (SK-MEL-28 melanoma) of the same compound?
Answer: Its TGI is over 50 µM.

Question: What about the GI50 (TK-10 renal) of the same compound?
Answer: Its GI50 is 11.9 µM.

Question: And the TGI (TK-10 renal)?
Answer: The TGI was 43.7 µM.

Question: And the GI50 (M14 melanoma)?
Answer: The GI50 was over 50 µM.

Question: And the TGI (M14 melanoma)?
Answer: Its TGI is over 50 µM.

Question: What about the GI50 (SNB-19 CNS) of the same compound?
Answer: Its GI50 is 6.51 µM.

Question: What about the TGI (SNB-19 CNS) of the same compound?
Answer: Its TGI is 31.3 µM.

Question: What about the GI50 (A549 NSCLC) of the same compound?
Answer: Its GI50 is over 50 µM.

Question: What about the TGI (A549 NSCLC) of the same compound?
Answer: Its TGI is over 50 µM.

Question: And the GI50 (SK-MEL-2 melanoma)?
Answer: The GI50 was 20 µM.

Question: And the TGI (SK-MEL-2 melanoma)?
Answer: The TGI was over 50 µM.

Question: And the GI50 (DU-145 prostate)?
Answer: The GI50 was 11.2 µM.

Question: And the TGI (DU-145 prostate)?
Answer: Its TGI is 35.2 µM.

Question: And the GI50 (A498 renal)?
Answer: Its GI50 is 0.833 µM.

Question: What about the TGI (A498 renal) of the same compound?
Answer: The TGI was 14.2 µM.

Question: And the GI50 (SF-539 CNS)?
Answer: The GI50 was over 50 µM.

Question: What about the TGI (SF-539 CNS) of the same compound?
Answer: The TGI was over 50 µM.

Question: What about the GI50 (ACHN renal) of the same compound?
Answer: The GI50 was over 50 µM.

Question: And the TGI (ACHN renal)?
Answer: The TGI was over 50 µM.

Question: And the GI50 (SR leukemia)?
Answer: The GI50 was 12.5 µM.

Question: What about the TGI (SR leukemia) of the same compound?
Answer: The TGI was over 50 µM.

Question: What about the GI50 (RXF 393 renal) of the same compound?
Answer: Its GI50 is 42.4 µM.

Question: And the TGI (RXF 393 renal)?
Answer: The TGI was over 50 µM.

Question: And the GI50 (EKVX NSCLC)?
Answer: The GI50 was over 50 µM.

Question: And the TGI (EKVX NSCLC)?
Answer: The TGI was over 50 µM.

Question: And the GI50 (IGROV1 ovarian)?
Answer: The GI50 was 19.2 µM.

Question: What about the TGI (IGROV1 ovarian) of the same compound?
Answer: Its TGI is over 50 µM.

Question: What about the GI50 (HT29 colon) of the same compound?
Answer: Its GI50 is 22.3 µM.

Question: And the TGI (HT29 colon)?
Answer: Its TGI is over 50 µM.

Question: And the GI50 (LOX IMVI melanoma)?
Answer: The GI50 was 27.5 µM.

Question: What about the TGI (LOX IMVI melanoma) of the same compound?
Answer: The TGI was over 50 µM.

Question: And the GI50 (UACC-257 melanoma)?
Answer: Its GI50 is 47 µM.

Question: And the TGI (UACC-257 melanoma)?
Answer: The TGI was over 50 µM.

Question: And the GI50 (COLO 205 colon)?
Answer: The GI50 was 0.269 µM.

Question: And the TGI (COLO 205 colon)?
Answer: Its TGI is over 50 µM.

Question: And the GI50 (OVCAR-5 ovarian)?
Answer: Its GI50 is over 50 µM.

Question: What about the TGI (OVCAR-5 ovarian) of the same compound?
Answer: The TGI was over 50 µM.

Question: What about the GI50 (SK-MEL-5 melanoma) of the same compound?
Answer: The GI50 was 20.2 µM.

Question: What about the TGI (SK-MEL-5 melanoma) of the same compound?
Answer: The TGI was over 50 µM.

Question: And the GI50 (SF-295 CNS)?
Answer: The GI50 was over 50 µM.

Question: What about the TGI (SF-295 CNS) of the same compound?
Answer: Its TGI is over 50 µM.

Question: What about the GI50 (NCI-H522 lung) of the same compound?
Answer: Its GI50 is over 50 µM.

Question: What about the TGI (NCI-H522 lung) of the same compound?
Answer: Its TGI is over 50 µM.

Question: And the GI50 (HCT-116 colon)?
Answer: Its GI50 is 18.2 µM.

Question: What about the TGI (HCT-116 colon) of the same compound?
Answer: The TGI was over 50 µM.

Question: And the GI50 (PC-3 prostate)?
Answer: The GI50 was over 50 µM.

Question: What about the TGI (PC-3 prostate) of the same compound?
Answer: The TGI was over 50 µM.

Question: And the GI50 (CCRF-CEM leukemia)?
Answer: The GI50 was 44.4 µM.

Question: What about the TGI (CCRF-CEM leukemia) of the same compound?
Answer: Its TGI is over 50 µM.

Question: What about the GI50 (SF-268 CNS) of the same compound?
Answer: The GI50 was 44.1 µM.

Question: And the TGI (SF-268 CNS)?
Answer: Its TGI is over 50 µM.

Question: What about the GI50 (HL-60(TB) leukemia) of the same compound?
Answer: The GI50 was over 50 µM.

Question: What about the TGI (HL-60(TB) leukemia) of the same compound?
Answer: Its TGI is over 50 µM.

Question: And the GI50 (BT-549 breast)?
Answer: The GI50 was 19.6 µM.

Question: What about the TGI (BT-549 breast) of the same compound?
Answer: The TGI was over 50 µM.

Question: What about the GI50 (UACC-62 melanoma) of the same compound?
Answer: The GI50 was 36.9 µM.

Question: And the TGI (UACC-62 melanoma)?
Answer: The TGI was over 50 µM.

Question: What about the GI50 (CAKI-1 renal) of the same compound?
Answer: Its GI50 is 48 µM.

Question: What about the TGI (CAKI-1 renal) of the same compound?
Answer: Its TGI is over 50 µM.

Question: What about the GI50 (NCI-H460 lung) of the same compound?
Answer: Its GI50 is 22.4 µM.

Question: What about the TGI (NCI-H460 lung) of the same compound?
Answer: Its TGI is over 50 µM.

Question: And the GI50 (U251 CNS)?
Answer: The GI50 was over 50 µM.

Question: What about the TGI (U251 CNS) of the same compound?
Answer: Its TGI is over 50 µM.

Question: What about the GI50 (SW-620 colon) of the same compound?
Answer: The GI50 was 10.8 µM.

Question: What about the TGI (SW-620 colon) of the same compound?
Answer: Its TGI is 39.4 µM.

Question: And the GI50 (UO-31 renal)?
Answer: Its GI50 is 40.1 µM.

Question: What about the TGI (UO-31 renal) of the same compound?
Answer: The TGI was over 50 µM.

Question: And the GI50 (HS 578T breast)?
Answer: The GI50 was over 50 µM.

Question: And the TGI (HS 578T breast)?
Answer: The TGI was over 50 µM.

Question: And the GI50 (786-0 renal)?
Answer: Its GI50 is over 50 µM.

Question: What about the TGI (786-0 renal) of the same compound?
Answer: The TGI was over 50 µM.

Question: What about the GI50 (MDA-MB-231 breast) of the same compound?
Answer: The GI50 was over 50 µM.

Question: And the TGI (MDA-MB-231 breast)?
Answer: The TGI was over 50 µM.
